Laboratory results published in US12428406B2 (PMV Pharmaceuticals, Inc., priority 2019, dated 2025).

These compounds were tested against T1, p53 Y220C (Homo sapiens, UniProt P04637, Y220C) (assay: In vitro DNA binding activity assay (HTRF / TR-FRET): stabilization of p53 Y220C and increase of its DNA binding activity). Conditions: recombinant His-tagged p53 Y220C DNA binding domain (aa 94-312), biotin-labeled consensus DNA, incubated at 27° C. or 29° C. for 60 min.
T1 construct: The recombinant protein was a truncation mutant containing only amino acids 94-312 of p53; made in house; host or cells: E. coli
T1 sequence (P04637 94-312, change not shown): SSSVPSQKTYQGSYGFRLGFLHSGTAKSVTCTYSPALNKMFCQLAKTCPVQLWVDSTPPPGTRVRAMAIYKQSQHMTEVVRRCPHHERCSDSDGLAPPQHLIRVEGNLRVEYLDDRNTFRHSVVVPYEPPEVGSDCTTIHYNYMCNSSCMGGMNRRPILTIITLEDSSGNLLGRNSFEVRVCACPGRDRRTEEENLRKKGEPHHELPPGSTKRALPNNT
Format: biochemical
Method in brief: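 Compound effect on DNA binding of recombinant His-p53 Y220C (E. coli) to biotin-labeled consensus DNA, expressed as SC150, the concentration giving 50% increase versus untreated. Serial 3-fold DMSO dilutions of 4.5 mM stocks; room-temperature steps of 15 then 20 min.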

**Q.** With CNC(=O)c1ccc(NCC#Cc2cc3c(N[C@H]4CC[C@@H](N5CC6(COC6)C5)CC4)cccc3n2CC(F)(F)F)c(OCCOC)c1 [Compound 237A, 3-(2-methoxyethoxy)-N-methyl-4-{[3-(4-{[(1S,4S)-4-{2-oxa-6-azaspiro[3.3]heptan-6-yl}cyclohexyl]amino}-1-(2,2,2-trifluoroethyl)-1H-indol-2-yl)prop-2-yn-1-yl]amino} benzamide] as the compound, how does the “SC150 (concentration of the compound required to increase the DNA binding activity by 50%)” value read?
**A.** + (+ = 0 μM ≤ SC150 < 0.05 μM)

**Q.** For COc1cc(S(N)(=O)=O)ccc1NCC#Cc1cc2c(NC3CCC(=O)CC3)cccc2n1CC(F)(F)F [Compound 65A, 3-methoxy-4-[(3-{4-[(4-oxocyclohexyl)amino]-1-(2,2,2-trifluoroethyl)-1H-indol-2-yl}prop-2-yn-1-yl)amino]benzene-1-sulfonamide], which “SC150 (concentration of the compound required to increase the DNA binding activity by 50%)” value is on record?
**A.** + (+ = 0 μM ≤ SC150 < 0.05 μM)

**Q.** Which “SC150 (concentration of the compound required to increase the DNA binding activity by 50%)” value does the source give for CC(O)CN1CCC(Nc2cccc3c2cc(C#CCNc2ccc(S(C)(=O)=O)cc2OCC#N)n3CC(F)(F)F)CC1 (stereo not shown) [Compound 661A, 2-(2-{[3-(4-{[1-(2-hydroxypropyl)piperidin-4-yl]amino}-1-(2,2,2-trifluoroethyl)-1H-indol-2-yl)prop-2-yn-1-yl]amino}-5-methanesulfonylphenoxy)acetonitrile] here?
**A.** + (+ = 0 μM ≤ SC150 < 0.05 μM)

**Q.** For COc1cc(C(=O)N[C@@H]2[C@@H](O)[C@H](O)[C@@H](CO)O[C@H]2O)ccc1NCC#Cc1cc2c(N[C@@H]3CCN(C)C[C@@H]3F)cccc2n1CC(F)(F)F [Compound 948A, 4-((3-(4-(((3S,4R)-3-fluoro-1-methylpiperidin-4-yl)amino)-1-(2,2,2-trifluoroethyl)-1H-indol-2-yl)prop-2-yn-1-yl)amino)-3-methoxy-N-((2R,3R,4R,5S,6R)-2,4,5-trihydroxy-6-(hydroxymethyl)tetrahydro-2H-pyran-3-yl)benzamide], which “SC150 (concentration of the compound required to increase the DNA binding activity by 50%)” value is on record?
**A.** + (+ = 0 μM ≤ SC150 < 0.05 μM)

**Q.** Which “SC150 (concentration of the compound required to increase the DNA binding activity by 50%)” value does the source give for COc1cc(S(C)(=O)=O)ccc1NCC#Cc1cc2c(NC3CCN(CCOCCOCCO)CC3)cccc2n1CC(F)(F)F [Compound 544A, 2-[2-(2-{4-[(2-{3-[(4-methanesulfonyl-2-methoxyphenyl)amino]prop-1-yn-1-yl}-1-(2,2,2-trifluoroethyl)-1H-indol-4-yl)amino]piperidin-1-yl}ethoxy)ethoxy]ethan-1-ol] here?
**A.** + (+ = 0 μM ≤ SC150 < 0.05 μM)

**Q.** Which “SC150 (concentration of the compound required to increase the DNA binding activity by 50%)” value does the source give for COc1cc(S(=O)(=O)NC(C)=O)ccc1NCC#Cc1cc2c(N[C@H]3CC[C@H](N4CC5(CCOCC5)C4)CC3)cccc2n1CC(F)(F)F [Compound 305A, N-((4-((3-(4-(((1R,4R)-4-(7-oxa-2-azaspiro[3.5]nonan-2-yl)cyclohexyl)amino)-1-(2,2,2-trifluoroethyl)-1H-indol-2-yl)prop-2-yn-1-yl)amino)-3-methoxyphenyl)sulfonyl)acetamide] here?
**A.** + (+ = 0 μM ≤ SC150 < 0.05 μM)

**Q.** For COc1cc(S(C)(=O)=O)ccc1NCC#Cc1cc2c(N[C@H]3CC[C@H](N4CC5(COC5)C4)CC3)cccc2n1CC(F)(F)F [Compound 202A, 2-{3-[(4-methanesulfonyl-2-methoxyphenyl)amino]prop-1-yn-1-yl}-N-[(1R,4R)-4-{2-oxa-6-azaspiro[3.3]heptan-6-yl}cyclohexyl]-1-(2,2,2-trifluoroethyl)-1H-indol-4-amine], which “SC150 (concentration of the compound required to increase the DNA binding activity by 50%)” value is on record?
**A.** + (+ = 0 μM ≤ SC150 < 0.05 μM)

**Q.** How did the “SC150 (concentration of the compound required to increase the DNA binding activity by 50%)” value turn out when CCS(=O)(=O)c1ccc(NCC#Cc2cc3c(N[C@H]4CC[C@@H](N5CC6(CCOCC6)C5)CC4)cccc3n2CC(F)(F)F)c(OC)c1 [Compound 315A, 2-(3-{[4-(ethanesulfonyl)-2-methoxyphenyl]amino}prop-1-yn-1-yl)-N-[(1S,4S)-4-{7-oxa-2-azaspiro[3.5]nonan-2-yl}cyclohexyl]-1-(2,2,2-trifluoroethyl)-1H-indol-4-amine] was run?
**A.** + (+ = 0 μM ≤ SC150 < 0.05 μM)

**Q.** For COc1cc(S(C)(=O)=O)ccc1N(C)CC#Cc1cc2c(NC3CCN(C)CC3)cccc2n1CC(F)(F)F [Compound 478A, 2-{3-[(4-methanesulfonyl-2-methoxyphenyl) (methyl)amino]prop-1-yn-1-yl}-N-(1-methylpiperidin-4-yl)-1-(2,2,2-trifluoroethyl)-1H-indol-4-amine], which “SC150 (concentration of the compound required to increase the DNA binding activity by 50%)” value is on record?
**A.** ++++ (++++ = 0.2 μM ≤ SC150 < 1 μM)

**Q.** With COc1cc(S(C)(=O)=O)ccc1NCC#Cc1cc2c(NC3CCN(C(=O)C(C)C)CC3)cccc2n1CC(F)(F)F [Compound 752A] as the compound, how does the “SC150 (concentration of the compound required to increase the DNA binding activity by 50%)” value read?
**A.** + (+ = 0 μM ≤ SC150 < 0.05 μM)

**Q.** CS(=O)(=O)c1ccc(NCC#Cc2cc3c(N[C@H]4CC[C@H](N5CC6(COC6)C5)CC4)cccc3n2CC(F)(F)F)c(Cl)c1 [Compound 289A, 2-{3-[(2-chloro-4-methanesulfonyl-phenyl)amino]prop-1-yn-1-yl}-N-[(1R,4R)-4-{2-oxa-6-azaspiro[3.3]heptan-6-yl}cyclo-hexyl]-1-(2,2,2-trifluo-roethyl)-1H-indol-4-amine] was tested. Which “SC150 (concentration of the compound required to increase the DNA binding activity by 50%)” value did it give?
**A.** + (+ = 0 μM ≤ SC150 < 0.05 μM)

**Q.** Which “SC150 (concentration of the compound required to increase the DNA binding activity by 50%)” value does the source give for COc1cc(S(C)(=O)=O)ccc1NCC#Cc1cc2c(NC3CCN(CC(C)(C)OC)CC3)cccc2n1CC(F)(F)F [Compound 692A, 2-{3-[(4-methanesulfonyl-2-methoxyphenyl)amino]prop-1-yn-1-yl}-N-[1-(2-methoxy-2-methylpropyl)piperidin-4-yl]-1-(2,2,2-trifluoroethyl)-1H-indol-4-amine] here?
**A.** + (+ = 0 μM ≤ SC150 < 0.05 μM)

**Q.** COc1cc(S(C)(=O)=O)ccc1NCC#Cc1cc2c(N[C@H]3CC[C@H](N4CCC(OC)C4)CC3)cccc2n1CC(F)(F)F (stereo partly drawn) [Compound 426A, 2-{3-[(4-methane-sulfonyl-2-methoxy-phenyl)amino]prop-1-yn-1-yl}-N-[(1R,4R)-4-(3-methoxypyrrolidin-1-yl)cyclohexyl]-1-(2,2,2-trifluoroethyl)-1H-indol-4-amine] was tested. Which “SC150 (concentration of the compound required to increase the DNA binding activity by 50%)” value did it give?
**A.** + (+ = 0 μM ≤ SC150 < 0.05 μM)

**Q.** With COc1cc(S(C)(=O)=O)ccc1NCC#Cc1cc2c(N[C@H]3CCC[C@@H](N)C3)cccc2n1CC(F)(F)F (racemic) [Compound 27A, rac-(1R,3S)-N^1-(2-{3-[(4-methanesulfonyl-2-methoxyphenyl)amino]prop-1-yn-1-yl}-1-(2,2,2-trifluoroethyl)-1H-indol-4-yl)cyclohexane-1,3-diamine] as the compound, how does the “SC150 (concentration of the compound required to increase the DNA binding activity by 50%)” value read?
**A.** + (+ = 0 μM ≤ SC150 < 0.05 μM)

**Q.** COc1cc(S(C)(=O)=O)ccc1NCC#Cc1cc2c(N[C@@H]3CN(C)CC[C@@H]3F)cccc2n1CC(F)(F)F (racemic) [Compound 1067A, rac-N-[(3R,4S)-4-fluoro-1-methylpiperidin-3-yl]-2-{3-[(4-methanesulfonyl-2-methoxyphenyl)amino]prop-1-yn-1-yl}-1-(2,2,2-trifluoroethyl)-1H-indol-4-amine] was tested. Which “SC150 (concentration of the compound required to increase the DNA binding activity by 50%)” value did it give?
**A.** + (+ = 0 μM ≤ SC150 < 0.05 μM)

**Q.** Which “SC150 (concentration of the compound required to increase the DNA binding activity by 50%)” value does the source give for COc1cc(S(N)(=O)=O)ccc1NCC#Cc1cc2c(N[C@@H]3CCO[C@@H](C)C3)cccc2n1CC(F)(F)F [Compound 1018A, 3-methoxy-4-{[3-(4-{[(2S,4R)-2-methyloxan-4-yl]amino}-1-(2,2,2-trifluoroethyl)-1H-indol-2-yl)prop-2-yn-1-yl]amino}benzene-1-sulfonamide] here?
**A.** + (+ = 0 μM ≤ SC150 < 0.05 μM)

**Q.** COc1cc(S(C)(=O)=O)ccc1NCC#Cc1cc2c(N[C@H]3CC[C@H](N4CCC5(CC4)COC5)CC3)cccc2n1CC(F)(F)F [Compound 313A, 2-{3-[(4-methane-sulfonyl-2-methoxy-phenyl)amino]prop-1-yn-1-yl}-N-[(1R,4R)-4-{2-oxa-7-azaspiro[3.5]nonan-7-yl}cyclohexyl]-1-(2,2,2-trifluoroethyl)-1H-indol-4-amine] was tested. Which “SC150 (concentration of the compound required to increase the DNA binding activity by 50%)” value did it give?
**A.** + (+ = 0 μM ≤ SC150 < 0.05 μM)

**Q.** For CS(=O)(=O)c1ccc(NCC#Cc2cc3c(N[C@H]4CC[C@@H](N5CC6(COC6)C5)CC4)cccc3n2CC(F)(F)F)c(OCC(F)(F)F)c1 [Compound 232A, 2-(3-{[4-methane-sulfonyl-2-(2,2,2-trifluoro-ethoxy)phenyl]amino}prop-1-yn-1-yl)-N-[(1S,4S)-4-{2-oxa-6-azaspiro[3.3]heptan-6-yl}cyclohexyl]-1-(2,2,2-trifluoroethyl)-1H-indol-4-amine], which “SC150 (concentration of the compound required to increase the DNA binding activity by 50%)” value is on record?
**A.** + (+ = 0 μM ≤ SC150 < 0.05 μM)

**Q.** For CCC(=O)OCC(CNC(=O)c1ccc(NCC#Cc2cc3c(N[C@@H]4CCN(C)C[C@@H]4F)cccc3n2CC(F)(F)F)c(OC)c1)OC(=O)CC (stereo partly drawn) [Compound 971A, 1-[(4-{[3-(4-{[(3S,4R)-3-fluoro-1-methylpiperidin-4-yl]amino}-1-(2,2,2-trifluoroethyl)-1H-indol-2-yl)prop-2-yn-1-yl]amino}-3-methoxyphenyl)formamido]-3-(propanoyloxy)propan-2-ylpropanoate], which “SC150 (concentration of the compound required to increase the DNA binding activity by 50%)” value is on record?
**A.** + (+ = 0 μM ≤ SC150 < 0.05 μM)

**Q.** How did the “SC150 (concentration of the compound required to increase the DNA binding activity by 50%)” value turn out when COc1cc(S(N)(=O)=O)ccc1NCC#Cc1cc2c(N[C@H]3CC[C@H](N4CCCC(OC)C4)CC3)cccc2n1CC(F)(F)F (stereo partly drawn) [Compound 358A, 3-methoxy-4-{[3-(4-{[(1R,4R)-4-(3-methoxypiperidin-1-yl)cyclohexyl]amino}-1-(2,2,2-trifluoroethyl)-1H-indol-2-yl)prop-2-yn-1-yl]amino}benzene-1-sulfonamide] was run?
**A.** + (+ = 0 μM ≤ SC150 < 0.05 μM)

**Q.** With CNC(=O)c1ccc(NCC#Cc2cc3c(N[C@H]4CCNC[C@H]4F)cccc3n2CC(F)(F)F)c(OC)c1 [Compound 851A] as the compound, how does the “SC150 (concentration of the compound required to increase the DNA binding activity by 50%)” value read?
**A.** + (+ = 0 μM ≤ SC150 < 0.05 μM)

**Q.** How did the “SC150 (concentration of the compound required to increase the DNA binding activity by 50%)” value turn out when COCC(O)CN1CCC(Nc2cccc3c2cc(C#CCNc2ccc(S(C)(=O)=O)cc2OC)n3CC(F)(F)F)CC1 (stereo not shown) [Compound 569A, 1-{4-[(2-{3-[(4-methanesulfonyl-2-methoxyphenyl)amino]prop-1-yn-1-yl}-1-(2,2,2-trifluoroethyl)-1H-indol-4-yl)amino]piperidin-1-yl}-3-methoxypropan-2-ol] was run?
**A.** + (+ = 0 μM ≤ SC150 < 0.05 μM)
